Consider 1 compound from patent US20230152324A1, “TUMOR-INTRINSIC NLRP3 INFLAMMASOME SIGNALING PATHWAY AS A GENETIC AND FUNCTIONAL BIOMARKER FOR IMMUNOTHERAPY RESPONSE” (Duke University, priority 2021, published 2023).

The experiment has as its system mice bearing BRAF^V600EPTEN^−/− melanomas. Nature of the experiment: Lung fibronectin expression (qrt-PCR, IHC) in BRAFV600EPTEN−/− melanoma-bearing mice. It is filed as in vivo, mouse. The conditions noted are these: anti-PD-1 vs anti-PD-1/Wnti treated tumor-bearing mice. An excerpt:
Prior studies have shown that the arrival of […] (HPC) expressing vascular endothelial growth factor receptor-1 (VEGFR1) in the lung as well as increased fibronectin expression by local fibroblasts contribute to the formation of a pre-metastatic niche that subsequently supports metastatic progression (35). Using multi-parameter flow cytometry, we indeed observed an increase in a c-kit^+CD133^+CD34^+VEGFR1^+ HPC (VEGFR1^+ HPC) population in mice harboring BRAF^V600EPTEN^−/− melanomas relative to non-tumor-bearing controls. […]
Small representative tissue specimens were harvested from tumors and lungs and stored in RNAlater at −80° C. […] Total RNA was isolated by RNeasy Plus Mini Kit (Qiagen, 74134) and RNA was quantified by NanoDrop. […] All data were normalized to Actb expression and relative gene expression was quantitated based on the 2ΔΔCt method. Relative mRNA levels of the following genes were measured: Cxcl5, Cxcl1, Cxcl2, Trp2, Csf3, Il1b, Fn1, Tgfb, Tgfbr2, Spp1, and Hsp70.
Paraffin-Sections (5-μm) from primary melanomas and lung tissues were processed using standard protocols for immunohistochemistry (IHC) and immunofluorescence (IF) staining. […] PMN-MDSC quantitation by Ly6G-staining, and CD8^+ T cell quantitation by CD8a-staining were performed at 20× magnification and 6-8 random fields were averaged per section over 3-4 sections per specimen. […]

Regarding `Cn1c(=O)c2c(ncn2CC(=O)Nc2ccc(-c3ccccc3)nn2)n(C)c1=O` [ETC-159], the “tumor-dependent upregulation of fibronectin expression levels in the lungs” value was “reversed”.
